Like-named read-outs stand apart in the source and are kept apart here.
How the values were obtained:
[1] = biological target: T1, SLC22A15 (Homo sapiens, UniProt Q8IZD6); assay: Uptake ratio screen, SLC22A15-overexpressing HEK293 over empty vector cells; type: cell-based; details: 2.5 μM (nicotine 10 μM), 2 min
T1 construct: by amplifying the entire gene-of-interest within the HEK293 genome via a long-range PCR
Procedure: (§1) Typically discussed substrates of the proton organic-cation antiporter ([14]) are highlighted in dark green in Figure 1.
(§2) In preparation for transport experiments, 24-well plates were pre-coated with poly-D-lysine (Sigma-Aldrich) and 300,000 cells were plated per well and incubated for 48 h. Firstly, the 24-well plate was placed on a heating plate at 37 °C, and the cells were washed with 37 °C HBSS^+ buffer (Hank’s balanced salt solution supplemented with 10 mM Hepes and adjusted to pH 7.4; Thermo Fisher Scientific). The substance-of-interest, which was diluted in 37 °C HBSS^+ to a desired concentration, was added to the cells for exactly 2 min. […] The uptake was stopped with ice-cold HBSS^+, and the 24-well plate was removed from the heating plate. The cells were washed twice with the cold HBSS^+ before they were lysed for 15 min with 80% (v/v) acetonitrile containing the respective internal standard for mass spectrometry. For variations in seeded cell numbers between the cell lines, several wells were lysed in RIPA buffer and used for total protein quantification using a bicinchoninic assay ([74]) and bovine serum albumin as calibration.
(§3) The intracellular drug concentrations after transport experiments were analyzed by high-performance liquid chromatography coupled to tandem mass spectrometry analysis. The HPLC consisted of a Shimadzu Nexera HPLC System with a SIL-30AC autosampler, a LC-30AD pump, a CTO-20AC column oven, and a CBM-20A controller (Shimadzu). The reverse-phase chromatography of compounds was accomplished with a Brownlee SPP RP-Amide column with 4.6 × 100 mm inner dimensions, a particle size of 2.7 μm, and a preceding Phenomenex C-18 guard column. The mobile phase was composed of an organic additive with acetonitrile:methanol 6:1 (v/v) in total concentrations between 3% and 50% (v/v) and 0.1% (v/v) formic acid in the aqueous component of the eluent. During separation, the column oven was held at 40 °C and the mobile phase was maintained at a flow rate of 300 or 400 μl/min. After separation, the detection of substances was performed with an API 4000 tandem mass spectrometer (AB SCIEX, https://sciex.com/support/software-support/software-downloads), followed by quantification of results with the Analyst software (AB SCIEX, version 1.6.2). The composition of chromatographic conditions, as well as detailed mass spectrometric detection parameters, are listed in Table S5.
(§4) Transport-mediated net uptake was determined as fold-increase of transporter-overexpressing cells over empty vector–transfected control cells.

[2] = biological target: T2, SLC35G3 (Homo sapiens, UniProt Q8N808); details: ratio of Vmax over KM
T2 sequence (Q8N808 whole entry): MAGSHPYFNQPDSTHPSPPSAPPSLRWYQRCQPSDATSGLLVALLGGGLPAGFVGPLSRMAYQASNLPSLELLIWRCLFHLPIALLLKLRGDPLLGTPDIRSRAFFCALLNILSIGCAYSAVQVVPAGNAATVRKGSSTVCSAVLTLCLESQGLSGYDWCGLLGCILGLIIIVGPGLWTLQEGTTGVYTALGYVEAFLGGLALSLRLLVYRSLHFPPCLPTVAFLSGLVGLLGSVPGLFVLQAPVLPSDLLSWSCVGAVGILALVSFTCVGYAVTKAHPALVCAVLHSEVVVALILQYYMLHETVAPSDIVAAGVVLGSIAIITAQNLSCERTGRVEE

[3] = biological target: T3, SLC35F5 (Homo sapiens, UniProt Q8WV83); assay: Uptake ratio screen, SLC35F5-overexpressing HEK293 over empty vector cells; type: cell-based; set-up: by amplifying the entire gene-of-interest within the HEK293 genome via a long-range PCR; details: 2.5 μM, 2 min
T3 sequence (Q8WV83 1-523): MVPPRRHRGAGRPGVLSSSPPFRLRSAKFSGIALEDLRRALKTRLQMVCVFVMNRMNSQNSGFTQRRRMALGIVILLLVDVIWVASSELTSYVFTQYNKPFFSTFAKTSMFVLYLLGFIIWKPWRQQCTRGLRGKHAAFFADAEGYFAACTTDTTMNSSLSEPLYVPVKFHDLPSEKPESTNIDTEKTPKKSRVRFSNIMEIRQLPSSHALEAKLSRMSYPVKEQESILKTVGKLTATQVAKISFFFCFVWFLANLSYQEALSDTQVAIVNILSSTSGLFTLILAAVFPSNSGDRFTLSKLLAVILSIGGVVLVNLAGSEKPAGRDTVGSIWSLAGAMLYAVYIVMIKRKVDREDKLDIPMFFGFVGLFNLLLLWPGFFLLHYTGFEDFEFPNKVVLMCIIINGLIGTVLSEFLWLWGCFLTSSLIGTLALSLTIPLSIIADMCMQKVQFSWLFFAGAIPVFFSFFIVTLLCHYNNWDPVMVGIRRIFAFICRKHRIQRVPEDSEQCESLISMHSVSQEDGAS
Procedure: as §1, §2, §3, §4

[4] = biological target: T4, SLC19A2 (Homo sapiens, UniProt O60779); assay: Uptake ratio screen, SLC19A2-overexpressing HEK293 over empty vector cells; type: cell-based; details: 2.5 μM, 2 min
T4 construct: expressed in transfected cells
T4 sequence (O60779 1-497): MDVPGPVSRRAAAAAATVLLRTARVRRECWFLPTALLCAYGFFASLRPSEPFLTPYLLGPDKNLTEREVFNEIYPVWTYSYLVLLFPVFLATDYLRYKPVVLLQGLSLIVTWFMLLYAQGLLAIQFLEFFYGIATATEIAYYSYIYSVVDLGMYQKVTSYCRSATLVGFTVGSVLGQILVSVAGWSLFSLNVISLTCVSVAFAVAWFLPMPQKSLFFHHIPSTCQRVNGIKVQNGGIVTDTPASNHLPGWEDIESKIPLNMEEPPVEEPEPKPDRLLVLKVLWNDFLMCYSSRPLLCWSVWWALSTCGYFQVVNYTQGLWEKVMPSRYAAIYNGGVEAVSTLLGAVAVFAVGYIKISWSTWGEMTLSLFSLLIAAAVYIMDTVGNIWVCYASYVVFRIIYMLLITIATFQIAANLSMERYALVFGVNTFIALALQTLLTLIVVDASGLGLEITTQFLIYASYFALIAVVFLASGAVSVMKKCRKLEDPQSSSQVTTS
Procedure: as §1, §2
(§5) The intracellular drug concentrations after transport experiments were analyzed by high-performance liquid chromatography coupled to tandem mass spectrometry analysis. The HPLC consisted of a Shimadzu Nexera HPLC System with a SIL-30AC autosampler, a LC-30AD pump, a CTO-20AC column oven, and a CBM-20A controller (Shimadzu). The reverse-phase chromatography of compounds was accomplished with a Brownlee SPP RP-Amide column with 4.6 × 100 mm inner dimensions, a particle size of 2.7 μm, and a preceding Phenomenex C-18 guard column. […] After separation, the detection of substances was performed with an API 4000 tandem mass spectrometer (AB SCIEX, https://sciex.com/support/software-support/software-downloads), followed by quantification of results with the Analyst software (AB SCIEX, version 1.6.2). […]
as §4

[5] = biological target: T5, SLC22A18 (Homo sapiens, UniProt Q96BI1); assay: Uptake ratio screen, SLC22A18-overexpressing HEK293 over empty vector cells; type: cell-based; details: 2.5 μM (nicotine 10 μM), 2 min
T5 construct: by amplifying the entire gene-of-interest within the HEK293 genome via a long-range PCR
T5 sequence (Q96BI1 whole entry): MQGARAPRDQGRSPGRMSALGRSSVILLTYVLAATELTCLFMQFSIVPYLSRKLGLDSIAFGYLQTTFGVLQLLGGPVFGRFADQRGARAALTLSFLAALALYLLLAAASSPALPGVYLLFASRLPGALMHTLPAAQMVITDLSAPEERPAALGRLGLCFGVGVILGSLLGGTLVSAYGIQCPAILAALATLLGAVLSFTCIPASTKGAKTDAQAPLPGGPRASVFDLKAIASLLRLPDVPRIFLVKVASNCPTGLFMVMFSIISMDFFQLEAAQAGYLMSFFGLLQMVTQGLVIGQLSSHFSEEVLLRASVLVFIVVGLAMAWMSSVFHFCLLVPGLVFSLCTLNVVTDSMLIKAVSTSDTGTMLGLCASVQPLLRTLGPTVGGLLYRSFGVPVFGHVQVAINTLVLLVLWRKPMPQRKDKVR
Procedure: as §1
In preparation for transport experiments, 24-well plates were pre-coated with poly-D-lysine (Sigma-Aldrich) and 300,000 cells were plated per well and incubated for 48 h. Firstly, the 24-well plate was placed on a heating plate at 37 °C, and the cells were washed with 37 °C HBSS^+ buffer (Hank’s balanced salt solution supplemented with 10 mM Hepes and adjusted to pH 7.4; Thermo Fisher Scientific). The substance-of-interest, which was diluted in 37 °C HBSS^+ to a desired concentration, was added to the cells for exactly 2 min. […] For variations in seeded cell numbers between the cell lines, several wells were lysed in RIPA buffer and used for total protein quantification using a bicinchoninic assay ([74]) and bovine serum albumin as calibration.
The intracellular drug concentrations after transport experiments were analyzed by high-performance liquid chromatography coupled to tandem mass spectrometry analysis. […] After separation, the detection of substances was performed with an API 4000 tandem mass spectrometer (AB SCIEX, https://sciex.com/support/software-support/software-downloads), followed by quantification of results with the Analyst software (AB SCIEX, version 1.6.2). […]

[6] = biological target: T2, SLC35G3; assay: Uptake ratio screen, SLC35G3-overexpressing HEK293 over empty vector cells; type: cell-based; set-up: by amplifying the entire gene-of-interest within the HEK293 genome via a long-range PCR; details: 2.5 μM substrate, 2 min, HEK293
[7] = biological target: T6, SLC35F4 (Homo sapiens, UniProt A4IF30); assay: Uptake ratio screen, SLC35F4-overexpressing HEK293 over empty vector cells; type: cell-based; set-up: by amplifying the entire gene-of-interest within the HEK293 genome via a long-range PCR; details: 2.5 μM, 2 min
T6 sequence (A4IF30 1-521): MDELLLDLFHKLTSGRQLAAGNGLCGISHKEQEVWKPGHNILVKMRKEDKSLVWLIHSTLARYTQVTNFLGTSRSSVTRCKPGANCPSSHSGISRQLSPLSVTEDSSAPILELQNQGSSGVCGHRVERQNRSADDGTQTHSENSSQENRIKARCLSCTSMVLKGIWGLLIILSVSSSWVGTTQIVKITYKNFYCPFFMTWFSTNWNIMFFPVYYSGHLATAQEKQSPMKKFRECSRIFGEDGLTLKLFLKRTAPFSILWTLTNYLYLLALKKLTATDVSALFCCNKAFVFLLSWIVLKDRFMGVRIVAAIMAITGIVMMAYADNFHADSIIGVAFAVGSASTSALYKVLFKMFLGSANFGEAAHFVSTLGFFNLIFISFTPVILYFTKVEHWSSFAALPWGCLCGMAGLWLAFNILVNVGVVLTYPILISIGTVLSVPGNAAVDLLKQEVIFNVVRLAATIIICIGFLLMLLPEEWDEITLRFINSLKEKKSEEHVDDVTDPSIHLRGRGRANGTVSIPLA
Procedure: as §1, §2, §3, §4

[8] = biological target: SLC38A10 (Homo sapiens, UniProt Q9HBR0)
Sequence of SLC38A10 (Q9HBR0 whole entry): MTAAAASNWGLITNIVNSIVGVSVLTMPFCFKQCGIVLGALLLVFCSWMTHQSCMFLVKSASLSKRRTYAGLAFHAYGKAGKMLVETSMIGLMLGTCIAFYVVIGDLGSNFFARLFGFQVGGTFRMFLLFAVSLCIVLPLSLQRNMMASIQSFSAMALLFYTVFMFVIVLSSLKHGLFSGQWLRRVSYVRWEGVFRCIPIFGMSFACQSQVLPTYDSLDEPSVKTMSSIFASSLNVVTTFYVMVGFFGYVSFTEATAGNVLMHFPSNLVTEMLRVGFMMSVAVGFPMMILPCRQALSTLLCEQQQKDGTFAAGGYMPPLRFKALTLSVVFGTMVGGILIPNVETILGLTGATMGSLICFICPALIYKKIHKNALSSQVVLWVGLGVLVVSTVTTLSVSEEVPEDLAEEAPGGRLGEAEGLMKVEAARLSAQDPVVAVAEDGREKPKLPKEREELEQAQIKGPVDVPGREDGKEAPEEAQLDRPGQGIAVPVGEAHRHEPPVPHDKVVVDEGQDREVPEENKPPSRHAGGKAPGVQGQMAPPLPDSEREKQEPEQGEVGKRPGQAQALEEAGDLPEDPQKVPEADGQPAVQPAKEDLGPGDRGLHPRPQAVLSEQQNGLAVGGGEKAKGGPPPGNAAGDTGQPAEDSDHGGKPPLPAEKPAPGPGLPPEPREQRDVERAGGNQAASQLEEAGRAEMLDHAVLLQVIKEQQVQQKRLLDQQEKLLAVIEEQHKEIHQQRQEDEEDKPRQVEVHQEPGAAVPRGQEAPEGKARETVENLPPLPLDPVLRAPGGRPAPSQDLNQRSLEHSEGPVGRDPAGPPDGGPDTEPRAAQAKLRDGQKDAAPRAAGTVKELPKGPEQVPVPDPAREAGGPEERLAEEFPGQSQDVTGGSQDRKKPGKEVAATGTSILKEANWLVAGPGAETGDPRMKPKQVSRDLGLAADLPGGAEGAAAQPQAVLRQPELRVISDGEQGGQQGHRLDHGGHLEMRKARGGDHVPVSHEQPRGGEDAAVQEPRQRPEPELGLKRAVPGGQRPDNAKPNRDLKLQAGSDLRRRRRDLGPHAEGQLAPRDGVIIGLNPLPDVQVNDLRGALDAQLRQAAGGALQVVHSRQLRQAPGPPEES

[9] = biological target: T2, SLC35G3
[10] = biological target: T7, SLC47A1 (Homo sapiens, UniProt Q96FL8); assay: Uptake ratio screen, SLC47A1-overexpressing HEK293 over empty vector cells; type: cell-based; details: 2.5 μM, 2 min
T7 sequence (Q96FL8 1-570): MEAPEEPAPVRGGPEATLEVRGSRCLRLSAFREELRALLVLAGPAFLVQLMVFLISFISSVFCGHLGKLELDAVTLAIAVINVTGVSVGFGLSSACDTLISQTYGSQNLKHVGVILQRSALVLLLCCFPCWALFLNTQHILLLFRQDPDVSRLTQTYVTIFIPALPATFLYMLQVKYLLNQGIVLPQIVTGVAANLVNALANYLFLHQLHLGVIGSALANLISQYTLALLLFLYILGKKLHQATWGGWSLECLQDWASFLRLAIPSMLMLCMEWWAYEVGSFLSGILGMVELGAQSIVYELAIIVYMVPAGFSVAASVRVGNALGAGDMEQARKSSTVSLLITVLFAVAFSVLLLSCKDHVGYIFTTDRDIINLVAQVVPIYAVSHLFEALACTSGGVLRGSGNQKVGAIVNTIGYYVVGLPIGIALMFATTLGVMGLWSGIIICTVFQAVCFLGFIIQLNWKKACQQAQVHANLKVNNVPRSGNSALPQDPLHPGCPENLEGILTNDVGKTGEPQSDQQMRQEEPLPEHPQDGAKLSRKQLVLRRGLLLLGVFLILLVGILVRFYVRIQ
Procedure: as §1, §2, §5, §4

[11] = biological target: SLC47A2 (Homo sapiens, UniProt Q86VL8); assay: Uptake ratio screen, SLC47A2-overexpressing HEK293 over empty vector cells; type: cell-based; details: 2.5 μM, 2 min
Sequence of SLC47A2 (Q86VL8 1-566 isoform Q86VL8-3): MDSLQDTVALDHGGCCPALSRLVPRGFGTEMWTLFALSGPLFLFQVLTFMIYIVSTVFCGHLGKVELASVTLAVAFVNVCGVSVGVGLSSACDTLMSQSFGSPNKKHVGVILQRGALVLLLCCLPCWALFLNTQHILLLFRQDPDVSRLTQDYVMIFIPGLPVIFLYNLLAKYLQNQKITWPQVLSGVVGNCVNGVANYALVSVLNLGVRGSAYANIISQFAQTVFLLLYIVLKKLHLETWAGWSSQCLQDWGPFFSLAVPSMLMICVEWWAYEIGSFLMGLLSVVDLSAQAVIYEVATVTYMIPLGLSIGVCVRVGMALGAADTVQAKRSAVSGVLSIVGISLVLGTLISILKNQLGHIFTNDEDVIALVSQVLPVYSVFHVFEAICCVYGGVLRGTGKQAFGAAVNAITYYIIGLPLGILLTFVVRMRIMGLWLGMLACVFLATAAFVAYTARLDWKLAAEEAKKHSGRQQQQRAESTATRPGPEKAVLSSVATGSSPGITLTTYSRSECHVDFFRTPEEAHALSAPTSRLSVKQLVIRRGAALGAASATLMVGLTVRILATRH
Procedure: as §1, §2, §5, §4

[12] = biological target: T8, SLC35E4 (Homo sapiens, UniProt Q6ICL7); assay: Uptake ratio screen, SLC35E4-overexpressing HEK293 over empty vector cells; type: cell-based; set-up: by amplifying the entire gene-of-interest within the HEK293 genome via a long-range PCR; details: 2.5 μM, 2 min
T8 sequence (Q6ICL7 1-350): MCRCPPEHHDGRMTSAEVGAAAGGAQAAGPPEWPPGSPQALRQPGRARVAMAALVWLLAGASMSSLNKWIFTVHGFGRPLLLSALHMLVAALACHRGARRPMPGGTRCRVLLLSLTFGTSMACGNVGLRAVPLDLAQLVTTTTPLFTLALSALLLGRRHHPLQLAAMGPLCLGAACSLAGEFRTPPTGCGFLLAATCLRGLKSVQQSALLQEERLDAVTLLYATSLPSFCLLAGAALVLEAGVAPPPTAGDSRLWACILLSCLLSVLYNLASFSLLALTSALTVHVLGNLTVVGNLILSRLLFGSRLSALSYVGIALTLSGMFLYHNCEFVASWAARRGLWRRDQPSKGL
Procedure: as §1, §2, §5, §4

T1 sequence (Q8IZD6 whole entry): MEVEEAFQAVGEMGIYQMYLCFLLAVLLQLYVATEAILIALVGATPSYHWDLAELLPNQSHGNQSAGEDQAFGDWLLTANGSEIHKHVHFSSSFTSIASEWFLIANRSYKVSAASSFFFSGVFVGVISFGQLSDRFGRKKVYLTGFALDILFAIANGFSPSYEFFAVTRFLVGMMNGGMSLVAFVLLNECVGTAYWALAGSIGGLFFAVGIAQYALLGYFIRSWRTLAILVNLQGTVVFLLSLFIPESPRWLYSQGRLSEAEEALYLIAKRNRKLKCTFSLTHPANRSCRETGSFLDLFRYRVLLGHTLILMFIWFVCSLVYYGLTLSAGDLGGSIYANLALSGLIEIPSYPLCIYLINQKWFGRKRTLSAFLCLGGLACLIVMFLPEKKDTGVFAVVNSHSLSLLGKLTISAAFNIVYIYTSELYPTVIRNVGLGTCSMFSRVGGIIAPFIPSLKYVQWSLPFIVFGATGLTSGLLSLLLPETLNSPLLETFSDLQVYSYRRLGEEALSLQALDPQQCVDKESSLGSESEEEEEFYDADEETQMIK

CCOC(=O)C1(c2ccccc2)CCN(C)CC1 [Meperidine]
Uptake by SLC22A15 (in words) [1]: significantly increased the uptake | Clint (±SEM) [2]: 4.60 (±4.78) μl × mg protein^-1 × min^-1

COC(=O)C(c1ccccc1)C1CCCCN1 (centres unmarked) [Methylphenidate]
Uptake by SLC35F5 (in words) [3]: highest uptake rates | Uptake by SLC19A2 (in words) [4]: enhance cell uptake | Uptake by SLC22A18 (in words) [5]: newly identified substrates | Uptake data for SLC35G3, mean value (fold-increase over empty vector control) [6]: 1.31 | Uptake by SLC35F4 (in words) [7]: enhanced cell uptake

CN1CCC[C@H]1c1cccnc1 [Nicotine]
Uptake by SLC22A15 (in words) [1]: significantly increased the uptake | Vmax (±SEM) ([8]; SLC38A10, HEK293, net uptake over empty vector cells): 48.4 (±7.26) pmol × mg protein^-1 × min^-1 | Clint (±SEM) ([8]; SLC38A10, ratio of Vmax over KM): 0.78 (±0.57) μl × mg protein^-1 × min^-1 | Uptake by SLC22A18 (in words) [5]: newly identified substrates

CCCN1CCCC[C@H]1C(=O)Nc1c(C)cccc1C [Ropivacaine]
Clint (±SEM) [9]: 3.64 (±1.93) μl × mg protein^-1 × min^-1 | Uptake data for SLC35G3, mean value (fold-increase over empty vector control) [6]: 3.07

CN(C)CCc1c[nH]c2ccc(C[C@H]3COC(=O)N3)cc12 [Zolmitriptan]
Uptake data for SLC35G3, mean value (fold-increase over empty vector control) [6]: 1.27

C[C@]12CC[C@@H]3c4ccc(OS(=O)(=O)O)cc4CC[C@H]3[C@@H]1CCC2=O [estrone-3-sulfate]
Uptake by SLC47A1 (MATE1) (in words) [10]: confirmed to be transported | Uptake by SLC47A2 (MATE2K) (in words) [11]: confirmed to be transported

CC(C)C[C@H](N)C(=O)O [leucine]
Uptake by SLC35E4 (in words) [12]: minor

From article PMC11406361, “Several orphan solute carriers functionally identified as organic cation transporters: Substrates specificity compared with known cation transporters” (The Journal of Biological Chemistry, 2024)
